ChEMBL document CHEMBL1201862, “PubChem BioAssay data set” (2004)
Calls of active or inactive are those of the source.

Tests used:
[1] = target: Prothrombin (Homo sapiens, UniProt P00734); assay: Thrombin 1536 HTS Dose Response Confirmation. [Related pubchem assays: 1046 (Thrombin 1536 HTS; hits were confirmed in this assay)]; type: functional
[2] = target: T1, Coagulation factor XII (Homo sapiens, UniProt P00748); type: functional;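 note: activated factor XIIa alpha cleaving a fluorogenic AMC peptide substrate; inhibitor potency from loss of enzyme activity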
T1 sequence (P00748 whole entry): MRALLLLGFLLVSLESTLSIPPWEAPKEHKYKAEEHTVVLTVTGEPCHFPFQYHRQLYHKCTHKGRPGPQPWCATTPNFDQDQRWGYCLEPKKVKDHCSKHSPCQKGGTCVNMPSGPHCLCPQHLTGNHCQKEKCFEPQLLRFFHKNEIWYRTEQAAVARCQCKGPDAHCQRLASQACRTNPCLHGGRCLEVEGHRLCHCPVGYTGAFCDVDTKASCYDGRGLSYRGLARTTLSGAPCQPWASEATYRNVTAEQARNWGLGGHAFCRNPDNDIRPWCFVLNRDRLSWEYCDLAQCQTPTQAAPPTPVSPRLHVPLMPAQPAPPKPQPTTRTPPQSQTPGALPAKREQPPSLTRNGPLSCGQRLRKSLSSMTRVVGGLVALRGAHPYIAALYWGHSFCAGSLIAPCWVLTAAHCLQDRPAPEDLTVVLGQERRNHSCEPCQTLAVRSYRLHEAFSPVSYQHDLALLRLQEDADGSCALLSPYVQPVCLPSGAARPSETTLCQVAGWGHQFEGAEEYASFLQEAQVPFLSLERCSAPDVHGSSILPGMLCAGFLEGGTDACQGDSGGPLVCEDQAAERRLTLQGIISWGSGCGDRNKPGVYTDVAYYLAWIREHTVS

[3] = tested on: Streptococcus; assay: GAS UMAA2166 growth inhibition – luminescence, BacTiterGlo, counter-screen for streptokinase expression inhibitor project, dose response (AID 1915); type: functional, organism-based;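 note: potency for reduction of bacterial viability or growth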
[4] = target: T2, Streptokinase A (Streptococcus pyogenes serotype M1, UniProt P10520); assay: viability-normalized secreted streptokinase activity reduction – plasminogen activation absorbance, OD405, dose response (AID 1914); type: functional, Streptococcus pyogenes M1 GAS;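 note: secreted streptokinase activity via plasminogen activation per viability signal from cell pellet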
T2 sequence (P10520 whole entry): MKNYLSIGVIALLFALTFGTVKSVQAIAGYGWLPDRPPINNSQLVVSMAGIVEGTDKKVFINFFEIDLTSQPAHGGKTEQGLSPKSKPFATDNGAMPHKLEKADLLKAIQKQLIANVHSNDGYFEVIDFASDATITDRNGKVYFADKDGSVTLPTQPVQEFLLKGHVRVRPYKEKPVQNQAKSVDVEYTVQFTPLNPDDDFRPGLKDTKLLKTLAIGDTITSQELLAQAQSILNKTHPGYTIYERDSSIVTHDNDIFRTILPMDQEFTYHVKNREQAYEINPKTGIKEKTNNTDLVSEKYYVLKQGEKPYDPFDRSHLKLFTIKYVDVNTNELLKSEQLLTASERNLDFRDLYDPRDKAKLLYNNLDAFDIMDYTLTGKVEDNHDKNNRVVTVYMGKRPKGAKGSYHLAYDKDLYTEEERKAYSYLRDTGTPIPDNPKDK

[5] = tested on: Streptococcus sp. 'group A'; assay: Streptococcus pyogenes SK(-)GAS viability under kanamycin – luminescence, BacTiterGlo, confirmation, counter-screen for streptokinase expression inhibitor project, dose response (AID 1900); type: functional, organism-based
[6] = target: Nonstructural protein 1 (Influenza A virus, UniProt Q194T2); type: functional, Influenza A virus (A/California/07/2009(H1N1))
Sequence of Nonstructural protein 1 (Q194T2 whole entry): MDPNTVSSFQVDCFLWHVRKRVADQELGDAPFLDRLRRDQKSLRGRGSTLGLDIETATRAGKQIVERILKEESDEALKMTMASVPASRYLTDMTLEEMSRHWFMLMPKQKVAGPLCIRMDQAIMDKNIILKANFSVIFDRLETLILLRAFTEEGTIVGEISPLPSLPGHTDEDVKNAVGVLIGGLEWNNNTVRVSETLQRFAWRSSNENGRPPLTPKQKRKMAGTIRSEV

[7] = tested on: H9c2; assay: cells; type: functional, cell-based; settings: Rattus norvegicus, H9c2, Myocardium;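 note: confirmatory concentration-response retest of ultra-high-throughput screening hits for modulation of myocardial damage; cell death induced by hydrogen peroxide oxidative stress; compound pretreatment for 60 min then peroxide exposure for 2 h; potency is for protecting the cells against peroxide damage rather than for killing them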
[8] = target: T3, Mannose-6-phosphate isomerase (Homo sapiens, UniProt P34949); assay: MPI inhibition at elevated mannose 6-phosphate – biochemical, fluorescence intensity, high mannose 6-phosphate, primary screen (AID 1220)
T3 sequence (P34949 whole entry): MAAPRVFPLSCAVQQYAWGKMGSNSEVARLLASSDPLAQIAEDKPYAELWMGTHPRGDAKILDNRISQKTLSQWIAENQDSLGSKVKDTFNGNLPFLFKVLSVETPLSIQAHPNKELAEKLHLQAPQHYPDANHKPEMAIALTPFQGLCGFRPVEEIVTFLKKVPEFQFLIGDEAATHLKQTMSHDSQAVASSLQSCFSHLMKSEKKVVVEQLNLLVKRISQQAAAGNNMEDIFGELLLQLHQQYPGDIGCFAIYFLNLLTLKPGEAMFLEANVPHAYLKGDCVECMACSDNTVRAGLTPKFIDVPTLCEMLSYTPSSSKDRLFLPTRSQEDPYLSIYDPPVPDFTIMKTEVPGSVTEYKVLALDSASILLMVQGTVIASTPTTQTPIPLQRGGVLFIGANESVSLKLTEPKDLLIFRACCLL

[9] = target: Cytochrome P450 2C9 (Homo sapiens, UniProt P11712)
Sequence of Cytochrome P450 2C9 (P11712 whole entry): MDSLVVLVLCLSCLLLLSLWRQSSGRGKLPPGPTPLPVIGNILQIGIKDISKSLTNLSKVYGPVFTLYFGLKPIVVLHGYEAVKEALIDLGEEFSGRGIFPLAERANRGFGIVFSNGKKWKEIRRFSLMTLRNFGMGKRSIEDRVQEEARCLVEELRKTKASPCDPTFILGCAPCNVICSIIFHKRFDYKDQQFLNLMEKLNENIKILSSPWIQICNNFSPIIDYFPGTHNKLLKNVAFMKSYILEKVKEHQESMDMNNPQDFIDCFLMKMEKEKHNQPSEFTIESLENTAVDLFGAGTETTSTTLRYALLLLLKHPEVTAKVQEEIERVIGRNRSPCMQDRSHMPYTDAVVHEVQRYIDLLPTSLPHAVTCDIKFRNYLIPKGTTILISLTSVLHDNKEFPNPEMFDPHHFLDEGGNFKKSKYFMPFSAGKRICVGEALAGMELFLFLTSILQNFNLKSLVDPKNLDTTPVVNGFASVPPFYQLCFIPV

[10] = target: Cytochrome P450 2D6 (Homo sapiens, UniProt P10635);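 note: CYP2D6 member of a cytochrome P450 panel assay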
Sequence of Cytochrome P450 2D6 (P10635 whole entry): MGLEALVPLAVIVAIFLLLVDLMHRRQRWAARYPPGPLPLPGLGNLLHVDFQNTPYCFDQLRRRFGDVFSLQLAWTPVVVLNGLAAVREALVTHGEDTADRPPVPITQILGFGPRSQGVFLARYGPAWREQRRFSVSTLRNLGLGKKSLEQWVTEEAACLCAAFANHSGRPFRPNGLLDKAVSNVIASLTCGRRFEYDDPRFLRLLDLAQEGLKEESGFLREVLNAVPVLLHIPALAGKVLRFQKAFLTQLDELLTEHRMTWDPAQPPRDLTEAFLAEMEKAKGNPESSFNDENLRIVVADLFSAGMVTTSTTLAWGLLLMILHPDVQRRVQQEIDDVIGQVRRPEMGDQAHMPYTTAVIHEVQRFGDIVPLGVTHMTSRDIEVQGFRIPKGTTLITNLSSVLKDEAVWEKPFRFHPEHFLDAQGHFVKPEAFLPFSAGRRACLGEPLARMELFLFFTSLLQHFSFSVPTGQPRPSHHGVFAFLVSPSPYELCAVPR

[11] = target: Cytochrome P450 2C19 (Homo sapiens, UniProt P33261); assay: Cytochrome panel assay with activity outcomes. Panel member name: p450-cyp2c19 Compounds with AC50 equal or less than 10 uM are considered active; type: functional; settings: read-out: AC50
Sequence of Cytochrome P450 2C19 (P33261 whole entry): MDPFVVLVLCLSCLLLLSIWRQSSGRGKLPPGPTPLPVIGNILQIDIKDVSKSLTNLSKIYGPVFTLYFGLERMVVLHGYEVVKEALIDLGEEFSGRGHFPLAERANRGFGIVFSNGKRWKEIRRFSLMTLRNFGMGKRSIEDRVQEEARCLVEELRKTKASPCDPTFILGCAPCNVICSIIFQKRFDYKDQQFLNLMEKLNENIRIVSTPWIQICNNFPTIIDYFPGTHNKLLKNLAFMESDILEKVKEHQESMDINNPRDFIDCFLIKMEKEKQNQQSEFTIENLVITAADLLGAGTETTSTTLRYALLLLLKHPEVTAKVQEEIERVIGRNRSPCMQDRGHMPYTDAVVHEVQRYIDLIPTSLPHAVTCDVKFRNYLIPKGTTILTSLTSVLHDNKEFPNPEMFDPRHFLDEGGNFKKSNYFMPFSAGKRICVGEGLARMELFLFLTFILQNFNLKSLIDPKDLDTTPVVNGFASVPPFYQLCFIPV

[12] = target: T4, Histone-lysine N-methyltransferase NSD2 (Homo sapiens, UniProt O96028); type: biochemical
T4 sequence (O96028 whole entry): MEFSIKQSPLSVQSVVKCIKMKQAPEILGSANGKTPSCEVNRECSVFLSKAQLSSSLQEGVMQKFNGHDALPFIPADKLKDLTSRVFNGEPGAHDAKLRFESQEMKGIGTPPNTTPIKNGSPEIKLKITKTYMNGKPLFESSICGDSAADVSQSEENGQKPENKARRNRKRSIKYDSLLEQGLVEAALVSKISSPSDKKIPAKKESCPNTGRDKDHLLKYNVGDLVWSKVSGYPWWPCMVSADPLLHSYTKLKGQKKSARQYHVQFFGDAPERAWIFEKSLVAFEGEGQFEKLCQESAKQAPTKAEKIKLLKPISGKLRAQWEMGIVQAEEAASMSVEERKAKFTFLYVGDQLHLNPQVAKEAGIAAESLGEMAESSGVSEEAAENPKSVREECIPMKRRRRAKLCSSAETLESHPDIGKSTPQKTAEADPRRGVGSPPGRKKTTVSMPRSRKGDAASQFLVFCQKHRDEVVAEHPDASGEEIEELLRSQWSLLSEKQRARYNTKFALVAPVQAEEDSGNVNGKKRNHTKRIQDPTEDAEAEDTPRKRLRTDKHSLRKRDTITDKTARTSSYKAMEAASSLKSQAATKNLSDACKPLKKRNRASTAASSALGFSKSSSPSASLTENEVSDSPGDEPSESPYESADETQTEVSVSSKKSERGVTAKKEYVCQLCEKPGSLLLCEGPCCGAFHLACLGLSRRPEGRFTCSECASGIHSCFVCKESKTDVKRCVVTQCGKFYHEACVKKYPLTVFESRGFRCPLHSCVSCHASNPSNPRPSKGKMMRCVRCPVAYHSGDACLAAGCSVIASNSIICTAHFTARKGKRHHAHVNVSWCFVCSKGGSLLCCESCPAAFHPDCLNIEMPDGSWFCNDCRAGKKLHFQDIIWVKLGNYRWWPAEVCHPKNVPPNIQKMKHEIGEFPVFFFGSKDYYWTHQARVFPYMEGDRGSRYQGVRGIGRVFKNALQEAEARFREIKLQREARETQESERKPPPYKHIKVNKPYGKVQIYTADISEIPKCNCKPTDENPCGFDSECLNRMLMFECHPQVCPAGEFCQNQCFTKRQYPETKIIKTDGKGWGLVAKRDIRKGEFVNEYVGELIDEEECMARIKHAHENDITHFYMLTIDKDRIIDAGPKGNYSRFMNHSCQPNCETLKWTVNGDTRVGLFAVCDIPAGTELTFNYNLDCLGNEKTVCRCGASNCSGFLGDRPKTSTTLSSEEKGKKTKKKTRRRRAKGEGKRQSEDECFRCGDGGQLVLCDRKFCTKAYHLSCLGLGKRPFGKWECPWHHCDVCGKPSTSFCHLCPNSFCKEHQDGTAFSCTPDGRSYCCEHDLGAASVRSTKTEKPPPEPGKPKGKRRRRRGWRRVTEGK

[13] = cells; type: functional, cell-based
[14] = cells; type: functional, cell-based; remark: listed apart in the source
[15] = target: T5, Protein RecA (Mycobacterium tuberculosis, UniProt P9WHJ3); assay: Fluorescence Cell-Free Homogeneous Dose Retest to Identify Inhibitors of RecA-Intein Splicing Activity. [Related pubchem assays (depositor defined):AID2097, AID2223, AID489010, AID492950]; type: functional
T5 sequence (P9WHJ3 whole entry): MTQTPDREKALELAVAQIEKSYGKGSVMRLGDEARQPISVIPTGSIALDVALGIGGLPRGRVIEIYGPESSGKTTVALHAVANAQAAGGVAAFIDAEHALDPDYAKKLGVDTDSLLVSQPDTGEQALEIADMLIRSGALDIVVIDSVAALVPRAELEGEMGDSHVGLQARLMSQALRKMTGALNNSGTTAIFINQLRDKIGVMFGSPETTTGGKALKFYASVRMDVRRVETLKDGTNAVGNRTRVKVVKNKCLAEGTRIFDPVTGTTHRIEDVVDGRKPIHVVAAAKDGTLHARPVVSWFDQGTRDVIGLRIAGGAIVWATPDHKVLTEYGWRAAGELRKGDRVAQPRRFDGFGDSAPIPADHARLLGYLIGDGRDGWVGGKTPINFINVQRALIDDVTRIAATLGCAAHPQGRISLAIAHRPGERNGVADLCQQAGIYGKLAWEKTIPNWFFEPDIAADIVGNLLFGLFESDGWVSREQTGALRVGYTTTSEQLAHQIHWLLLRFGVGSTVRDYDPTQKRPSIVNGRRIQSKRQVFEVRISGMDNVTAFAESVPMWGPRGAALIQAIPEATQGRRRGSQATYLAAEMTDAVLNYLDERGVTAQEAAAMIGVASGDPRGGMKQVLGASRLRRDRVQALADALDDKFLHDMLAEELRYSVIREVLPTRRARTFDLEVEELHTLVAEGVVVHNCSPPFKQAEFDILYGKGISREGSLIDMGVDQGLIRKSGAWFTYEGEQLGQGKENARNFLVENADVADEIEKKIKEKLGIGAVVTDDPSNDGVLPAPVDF

[16] = target: T6, Replicative DNA helicase DnaB (Mycobacterium tuberculosis, UniProt P9WMR3); assay: DnaB intein splicing inhibitors, dose response, biochemical, cell-free fluorescence (AID 449749); type: functional
T6 sequence (P9WMR3 whole entry): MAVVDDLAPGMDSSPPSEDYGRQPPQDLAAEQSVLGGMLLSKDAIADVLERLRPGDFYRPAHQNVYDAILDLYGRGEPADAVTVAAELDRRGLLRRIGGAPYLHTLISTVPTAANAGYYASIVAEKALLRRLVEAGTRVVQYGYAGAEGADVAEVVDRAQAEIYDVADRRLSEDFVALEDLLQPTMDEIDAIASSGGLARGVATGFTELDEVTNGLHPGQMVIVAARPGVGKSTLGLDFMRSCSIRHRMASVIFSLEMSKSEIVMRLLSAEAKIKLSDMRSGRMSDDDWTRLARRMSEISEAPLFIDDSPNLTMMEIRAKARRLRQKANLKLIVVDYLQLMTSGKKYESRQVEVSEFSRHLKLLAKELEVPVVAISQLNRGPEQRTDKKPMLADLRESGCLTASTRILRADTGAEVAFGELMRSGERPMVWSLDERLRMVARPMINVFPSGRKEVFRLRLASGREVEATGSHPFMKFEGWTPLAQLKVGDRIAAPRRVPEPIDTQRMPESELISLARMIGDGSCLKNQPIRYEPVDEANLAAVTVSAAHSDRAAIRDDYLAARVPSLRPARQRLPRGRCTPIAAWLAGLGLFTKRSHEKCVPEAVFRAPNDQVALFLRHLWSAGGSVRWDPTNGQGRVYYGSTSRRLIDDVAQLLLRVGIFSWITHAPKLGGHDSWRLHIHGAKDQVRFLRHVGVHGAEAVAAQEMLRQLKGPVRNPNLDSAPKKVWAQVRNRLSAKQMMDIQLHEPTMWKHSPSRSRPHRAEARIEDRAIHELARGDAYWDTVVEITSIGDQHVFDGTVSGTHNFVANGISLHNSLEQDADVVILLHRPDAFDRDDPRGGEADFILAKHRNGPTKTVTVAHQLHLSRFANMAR

With `Cc1nn(C)c(C)c1S(=O)(=O)N1CCC(C(=O)NCCC2=CCCCC2)CC1` the IC50 [1] was > 50 µM (not active) and the IC50 [2] was > 50 µM (inactive).
With `Cc1cc(C)n(-c2nnc(C)n2NS(=O)(=O)c2ccc(F)cc2)n1` the IC50 [2] was > 50 µM (inactive).
For `CS(=O)(=O)c1ccc2nc(NC(=O)c3ccc(NS(=O)(=O)c4cccc([N+](=O)[O-])c4)cc3)sc2c1`, the EC50 [3] was 12 µM (active), the EC50 [4] was > 150 µM (not active) and the IC50 [1] was > 50 µM (not active). The EC50 [5] was 2.32 µM (active).
For `O=C(O)Cc1ccc(NC(=O)CCN2C(=O)c3ccc([N+](=O)[O-])cc3C2=O)cc1`, the IC50 [2] was > 50 µM (inactive).
For `CCOc1ccc(OCC)c(NC(=O)CCS(=O)(=O)c2ccc(Br)s2)c1`, the IC50 [1] was 3.1 µM (active).
In the case of `O=C1SCCC1NC(=O)C(c1ccccc1)c1ccccc1` (configuration not stated), the IC50 [2] is reported as > 50 µM (inactive).
With `Cc1nnc2c(-c3ccccc3)nc3ccccc3n12` the IC50 [1] was > 50 µM (not active).
For `Cc1ccccc1NC(=O)Nc1ccccc1Br`, the IC50 [1] was > 50 µM (not active).
For `O=[N+]([O-])c1ccc(O)c(Nc2c([N+](=O)[O-])ccc3nonc23)c1`, the IC50 [6] was 64.5 µM (active).
For `O=c1oc(-c2ccco2)nc2c1cnn2-c1ccccc1`, the IC50 [7] was > 79 µM (inactive) and the IC50 [2] was 18.2 µM (active).
With `Nc1cccc2cnccc12` the IC50 [8] was > 50 µM (not active), the AC50 [9] was 28.2 µM (inconclusive) and the AC50 [10] was 22.4 µM (inconclusive). For the same compound, the AC50 [11] was 20 µM (inconclusive) and the AC50 [12] was > 20 µM (inactive).
For `Cc1[nH]n(-c2ccccc2)c(=O)c1N=Nc1ccc2c(c1)OCCO2`, the EC50 [13] was > 350 µM (not active), the IC50 [6] was 41.2 µM (active) and the EC50 [14] was > 350 µM (not active).
For `Cc1ccc(C(=O)N/N=C/c2ccc(-c3ccccc3[N+](=O)[O-])o2)cn1`, the IC50 [8] was > 50 µM (not active), the EC50 [15] was 13.5 µM (active) and the AC50 [16] was 30.6 µM (active).
In the case of `O=C(CCc1ccc(O)cc1)N/N=C/c1coc2ccccc2c1=O`, the IC50 [1] is reported as 6.25 µM (active).
